PubChem BioAssay (NCI)
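Values below derive from 48-hour exposures of cells grown in 96-well plates, with endpoints linearly interpolated between the two concentrations bracketing the appropriate inhibition level. Abbreviation: GI50, concentration required for 50% inhibition of growth. The concentration for full growth arrest is given as TGI.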

Tests used:
Experiment in all cases: inhibition of tumour cell growth, NCI panel, 48 h
NCI-H23 lung = test system: NCI-H23 lung
K-562 leukemia = test system: K-562 leukemia
SF-539 CNS = test system: SF-539 CNS
RPMI-8226 leukemia = test system: RPMI-8226 leukemia
SF-295 CNS = test system: SF-295 CNS
COLO 205 colon = test system: COLO 205 colon
SW-620 colon = test system: SW-620 colon
SNB-75 CNS = test system: SNB-75 CNS
MDA-MB-435 = test system: MDA-MB-435
UACC-62 melanoma = test system: UACC-62 melanoma

| SMILES | GI50 (NCI-H23 lung) | TGI (NCI-H23 lung) | GI50 (K-562 leukemia) | TGI (K-562 leukemia) | GI50 (SF-539 CNS) | TGI (SF-539 CNS) | GI50 (RPMI-8226 leukemia) | TGI (RPMI-8226 leukemia) | GI50 (SF-295 CNS) | TGI (SF-295 CNS) | GI50 (COLO 205 colon) | TGI (COLO 205 colon) | GI50 (SW-620 colon) | TGI (SW-620 colon) | GI50 (SNB-75 CNS) | TGI (SNB-75 CNS) | GI50 (MDA-MB-435) | TGI (MDA-MB-435) | GI50 (UACC-62 melanoma) | TGI (UACC-62 melanoma) |
| --- | --- | --- | --- | --- | --- | --- | --- | --- | --- | --- | --- | --- | --- | --- | --- | --- | --- | --- | --- | --- |
| CN1C(=O)C(=Cc2cn(Cc3ccccc3)c3ccccc23)C(=O)N(C)C1=O | 44.2 µM | > 100 µM | 5.08 µM | > 100 µM | 47.3 µM | > 100 µM | 26.9 µM | > 100 µM | 0.732 µM | > 100 µM | 0.712 µM | 6.67 µM | > 92.4 µM | > 100 µM | 34.2 µM | > 100 µM | > 83.3 µM | > 100 µM | 1.87 µM | > 35.3 µM |
| C[C@@H](NC(=O)[C@@H](CC(=O)N1CCC(N2CCCCC2)CC1)N1C(=O)[C@@H](N2C(=O)OC[C@@H]2c2ccccc2)[C@H]1/C=C/c1cccc(Cl)c1)c1ccccc1 | 3.85 µM | 15.5 µM | 2.63 µM | 5.47 µM | 1.76 µM | 3.38 µM | 2.93 µM | 8.32 µM | 1.84 µM | 3.91 µM | 1.8 µM | 4.24 µM | 2.06 µM | 4.7 µM | 1.71 µM | 4.09 µM | 1.64 µM | 3.17 µM | 1.95 µM | 3.88 µM |
| COc1ccc(-c2cn(-c3cccc(C(=O)/C=C/c4ccc(O)c(OC)c4)c3)c(=O)[nH]2)cc1 | 3.57 µM | 25.2 µM | 4.71 µM | > 37.7 µM | 2.12 µM | 5.53 µM | 1.35 µM | 3.68 µM | 11.2 µM | > 85.4 µM | 4.79 µM | 15.3 µM | 2.42 µM | 6.22 µM | 4.75 µM | > 80.2 µM | 3.19 µM | > 62.2 µM | 3.18 µM | 16.1 µM |
| COc1ccc2nc(NCN3C(=O)c4ccccc4C3=O)sc2c1 | – | > 100 µM | – | > 100 µM | – | > 100 µM | – | > 100 µM | – | > 100 µM | – | > 100 µM | – | > 100 µM | – | > 100 µM | – | > 100 µM | – | > 100 µM |
| Oc1ccc2ccccc2c1C1NN=C(c2ccccc2)S1 (stereo not drawn) | 1.26 µM | 48.7 µM | 0.504 µM | > 100 µM | 0.361 µM | 16 µM | 0.237 µM | > 100 µM | 0.475 µM | 62.2 µM | 0.55 µM | 16.3 µM | 0.806 µM | > 100 µM | 1.02 µM | 32.2 µM | 0.632 µM | 42.4 µM | 0.362 µM | 6.3 µM |
| c1cncc(-c2nc3ccccc3s2)c1 | > 100 µM | > 100 µM | > 100 µM | > 100 µM | > 100 µM | > 100 µM | 99.4 µM | > 100 µM | > 100 µM | > 100 µM | > 100 µM | > 100 µM | > 100 µM | > 100 µM | 58.4 µM | > 100 µM | > 100 µM | > 100 µM | > 100 µM | > 100 µM |
| CCN(CC)CCCC(C)Nc1c2ccc(Cl)cc2nc2cc(OC)c(OC)cc12 (stereo not drawn) | 1.48 µM | 3.25 µM | 2.4 µM | 8.77 µM | 1.64 µM | 3.19 µM | 2.47 µM | 6.66 µM | 1.5 µM | 3.24 µM | – | – | 1.35 µM | 7.54 µM | 1.31 µM | 2.6 µM | 1.65 µM | 3.08 µM | 2.14 µM | 4.69 µM |
